Consider ten compounds from ChEMBL document CHEMBL1667751, “Synthesis and antimicrobial activity of highly functionalised novel β-lactam grafted spiropyrrolidines and pyrrolizidines” (2011).

Assay [1] deals with Proteus mirabilis. The assay can be described thus: Antibacterial activity against Proteus mirabilis at 25 ug/ml after 24 hrs agar diffusion method. The conditions noted are these: read-out: DIZ. The class given is functional. In general terms: A growth-free zone around the sample is the usual read-out of agar diffusion tests.
Assay [2] concerns Proteus mirabilis. The assay can be described thus: Antibacterial activity against Proteus mirabilis at 50 ug/ml after 24 hrs agar diffusion method. In kind it is functional. The conditions noted are these: read-out: DIZ.
For assay [3], the system named is Proteus mirabilis. The assay can be described thus: Antibacterial activity against Proteus mirabilis at 75 ug/ml after 24 hrs agar diffusion method. The conditions noted are these: read-out: DIZ. The class given is functional.
Assay [4] relates to Proteus mirabilis. The assay can be described thus: Antibacterial activity against Proteus mirabilis at 100 ug/ml after 24 hrs agar diffusion method. In kind it is functional. The conditions noted are these: read-out: DIZ.
Assay [5] deals with Proteus vulgaris. The assay can be described thus: Antibacterial activity against Proteus vulgaris at 25 ug/ml after 24 hrs agar diffusion method. The class given is functional. The conditions noted are these: read-out: DIZ.
For assay [6], the system named is Proteus vulgaris. Nature of the assay: Antibacterial activity against Proteus vulgaris at 50 ug/ml after 24 hrs agar diffusion method. In kind it is functional. The conditions noted are these: read-out: DIZ.
Assay [7] deals with Proteus vulgaris. Nature of the assay: Antibacterial activity against Proteus vulgaris at 75 ug/ml after 24 hrs agar diffusion method. The conditions noted are these: read-out: DIZ. In kind it is functional.
Assay [8] has as its system Proteus vulgaris. Nature of the assay: Antibacterial activity against Proteus vulgaris at 100 ug/ml after 24 hrs agar diffusion method. The class given is functional. The conditions noted are these: read-out: DIZ.
The test system of assay [9] is Salmonella typhi. Nature of the assay: Antibacterial activity against Salmonella typhi at 25 ug/ml after 24 hrs agar diffusion method. In kind it is functional, Salmonella enterica subsp. enterica serovar Typhi. The conditions noted are these: Salmonella enterica, read-out: DIZ.
The subject of assay [10] is Salmonella typhi. Nature of the assay: Antibacterial activity against Salmonella typhi at 50 ug/ml after 24 hrs agar diffusion method. In kind it is functional, Salmonella enterica subsp. enterica serovar Typhi. The conditions noted are these: Salmonella enterica, read-out: DIZ.
For assay [11], the system named is Salmonella typhi. Nature of the assay: Antibacterial activity against Salmonella typhi at 75 ug/ml after 24 hrs agar diffusion method. The class given is functional, Salmonella enterica subsp. enterica serovar Typhi. The conditions noted are these: Salmonella enterica, read-out: DIZ.
Assay [12] concerns Salmonella typhi. Nature of the assay: Antibacterial activity against Salmonella typhi at 100 ug/ml after 24 hrs agar diffusion method. The conditions noted are these: Salmonella enterica, read-out: DIZ. In kind it is functional, Salmonella enterica subsp. enterica serovar Typhi.
In assay [13] the test system is Staphylococcus aureus. The assay can be described thus: Antibacterial activity against Staphylococcus aureus at 25 ug/ml after 24 hrs agar diffusion method. The class given is functional. The conditions noted are these: read-out: DIZ.
Assay [14] deals with Staphylococcus aureus. The assay can be described thus: Antibacterial activity against Staphylococcus aureus at 50 ug/ml after 24 hrs agar diffusion method. The class given is functional. The conditions noted are these: read-out: DIZ.
The test system of assay [15] is Staphylococcus aureus. The assay can be described thus: Antibacterial activity against Staphylococcus aureus at 75 ug/ml after 24 hrs agar diffusion method. In kind it is functional. The conditions noted are these: read-out: DIZ.
Assay [16] deals with Staphylococcus aureus. Nature of the assay: Antibacterial activity against Staphylococcus aureus at 100 ug/ml after 24 hrs agar diffusion method. The conditions noted are these: read-out: DIZ. In kind it is functional.

As for `CCOC(=O)[C@@H]1[C@@H]([C@H]2[C@@H](Oc3ccccc3)C(=O)N2c2ccc(OC)cc2)CN(C)C12C(=O)c1ccccc1C2=O`, the zone of inhibition at 25 µg/mL is 9 mm in the assay on Proteus mirabilis [1], 12 mm in the assay on Proteus vulgaris [5], 9 mm with Salmonella typhi [9] and 11 mm with Staphylococcus aureus [13]. Also, the zone of inhibition at 50 µg/mL came to 13 mm with Proteus mirabilis [2], 16 mm in the assay with Proteus vulgaris [6], 11 mm in the assay on Salmonella typhi [10] and 13 mm in the assay on Staphylococcus aureus [14]. In addition, the zone of inhibition at 75 µg/mL with Proteus mirabilis [3] amounted to 16 mm; in the assay on Proteus vulgaris [7], 20 mm; in the assay with Salmonella typhi [11], 13 mm; in the assay with Staphylococcus aureus [15], 16 mm. Besides, the zone of inhibition at 100 µg/mL with Proteus mirabilis [4] was found to be 18 mm; in the assay on Proteus vulgaris [8], 23 mm; with Salmonella typhi [12], 19 mm; in the assay on Staphylococcus aureus [16], 18 mm.

On to `CCOC(=O)[C@@H]1[C@@H]([C@H]2[C@@H](c3ccccc3)C(=O)N2c2ccc(OC)cc2)CN(C)C12C(=O)c1ccccc1C2=O`, for which the zone of inhibition at 25 µg/mL with Proteus mirabilis [1], in the assay on Proteus vulgaris [5] and in the assay on Staphylococcus aureus [13] was 11 mm in each case. In addition, the zone of inhibition at 50 µg/mL with Proteus mirabilis [2] was determined as 13 mm; with Proteus vulgaris [6] it was 14 mm; in the assay with Salmonella typhi [10], 9 mm; with Staphylococcus aureus [14], 15 mm. Moreover, the zone of inhibition at 75 µg/mL with Proteus mirabilis [3] came out at 14 mm; in the assay on Proteus vulgaris [7], 18 mm; in the assay on Salmonella typhi [11] it was 13 mm; in the assay on Staphylococcus aureus [15] it was 18 mm. The zone of inhibition at 100 µg/mL with Proteus mirabilis [4] amounted to 18 mm; with Proteus vulgaris [8] it was 21 mm; in the assay on Salmonella typhi [12] it was 18 mm; in the assay on Staphylococcus aureus [16] it was 22 mm.

`CCOC(=O)[C@@H]1[C@@H]([C@H]2[C@@H](Oc3ccccc3)C(=O)N2c2ccc(OC)cc2)C2CCCN2C12C(=O)c1ccccc1C2=O` (some centres undefined): the zone of inhibition at 25 µg/mL in the assay with Proteus mirabilis [1] is 8 mm; in the assay on Proteus vulgaris [5], 9 mm; with Salmonella typhi [9], 11 mm; with Staphylococcus aureus [13], 9 mm. Further, the zone of inhibition at 50 µg/mL with Proteus mirabilis [2] is 15 mm; in the assay on Proteus vulgaris [6] it was 18 mm; in the assay on Salmonella typhi [10] it was 15 mm; with Staphylococcus aureus [14] it was 14 mm. For the same compound, the zone of inhibition at 75 µg/mL in the assay on Proteus mirabilis [3] worked out at 18 mm; in the assay with Proteus vulgaris [7] it was 23 mm; in the assay with Salmonella typhi [11], 17 mm; with Staphylococcus aureus [15], 18 mm. The zone of inhibition at 100 µg/mL amounted to 22 mm in the assay with Proteus mirabilis [4], 26 mm with Proteus vulgaris [8], 23 mm in the assay on Salmonella typhi [12] and 24 mm in the assay on Staphylococcus aureus [16].

On to `CCOC(=O)[C@@H]1[C@@H]([C@H]2[C@@H](c3ccccc3)C(=O)N2c2ccc(OC)cc2)C2CCCN2C12C(=O)c1ccccc1C2=O` (some centres undefined), for which the zone of inhibition at 25 µg/mL in the assay on Proteus mirabilis [1] stood at 10 mm; in the assay with Proteus vulgaris [5], 12 mm; in the assay with Salmonella typhi [9], 9 mm; in the assay on Staphylococcus aureus [13] it was 9 mm. The zone of inhibition at 50 µg/mL in the assay with Proteus mirabilis [2] was determined as 15 mm; in the assay on Proteus vulgaris [6] it was 17 mm; in the assay on Salmonella typhi [10] it was 12 mm; in the assay on Staphylococcus aureus [14], 13 mm. Moreover, the zone of inhibition at 75 µg/mL with Proteus mirabilis [3] worked out at 16 mm; with Proteus vulgaris [7], 20 mm; in the assay on Salmonella typhi [11], 14 mm; in the assay on Staphylococcus aureus [15], 16 mm. Besides, the zone of inhibition at 100 µg/mL in the assay with Proteus mirabilis [4] came out at 23 mm; with Proteus vulgaris [8] it was 24 mm; in the assay with Salmonella typhi [12], 20 mm; with Staphylococcus aureus [16], 28 mm.

For the compound `CCOC(=O)[C@@H]1[C@@H]([C@H]2[C@@H](Oc3ccccc3)C(=O)N2c2ccc(OC)cc2)CN(C)[C@]12C(=O)Nc1ccccc12`, the zone of inhibition at 25 µg/mL amounted to 12 mm with Proteus mirabilis [1], 11 mm with Proteus vulgaris [5], 11 mm in the assay on Salmonella typhi [9] and 14 mm in the assay with Staphylococcus aureus [13]. In addition, the zone of inhibition at 50 µg/mL was determined as 13 mm in the assay with Proteus mirabilis [2], 14 mm in the assay with Proteus vulgaris [6], 14 mm with Salmonella typhi [10] and 19 mm in the assay on Staphylococcus aureus [14]. Moreover, the zone of inhibition at 75 µg/mL in the assay on Proteus mirabilis [3] stood at 22 mm; with Proteus vulgaris [7], 18 mm; in the assay with Salmonella typhi [11], 20 mm; with Staphylococcus aureus [15], 21 mm. Moreover, the zone of inhibition at 100 µg/mL in the assay on Proteus mirabilis [4] turned out to be 32 mm; in the assay with Proteus vulgaris [8], 21 mm; in the assay with Salmonella typhi [12], 28 mm; with Staphylococcus aureus [16], 26 mm.

Consider `CCOC(=O)[C@@H]1[C@@H]([C@H]2[C@@H](c3ccccc3)C(=O)N2c2ccc(OC)cc2)CN(C)[C@]12C(=O)Nc1ccccc12`, for which the zone of inhibition at 25 µg/mL with Proteus mirabilis [1] turned out to be 11 mm; in the assay with Proteus vulgaris [5] it was 11 mm; in the assay on Salmonella typhi [9], 12 mm; in the assay with Staphylococcus aureus [13], 14 mm. The zone of inhibition at 50 µg/mL with Proteus mirabilis [2] came out at 14 mm; with Proteus vulgaris [6] it was 14 mm; with Salmonella typhi [10], 15 mm; in the assay with Staphylococcus aureus [14], 18 mm. Further, the zone of inhibition at 75 µg/mL was 18 mm with Proteus mirabilis [3], 16 mm in the assay on Proteus vulgaris [7], 21 mm in the assay with Salmonella typhi [11] and 23 mm with Staphylococcus aureus [15]. Besides, the zone of inhibition at 100 µg/mL in the assay with Proteus mirabilis [4] amounted to 21 mm; in the assay with Proteus vulgaris [8], 20 mm; with Salmonella typhi [12] it was 29 mm; with Staphylococcus aureus [16], 27 mm.

Take `CCOC(=O)[C@@H]1[C@@H]([C@H]2[C@@H](Oc3ccccc3)C(=O)N2c2ccc(OC)cc2)CN(C)[C@@]12C(=O)c1cccc3cccc2c13`: the zone of inhibition at 25 µg/mL in the assay with Proteus mirabilis [1], in the assay with Proteus vulgaris [5] and in the assay on Salmonella typhi [9] was 9 mm throughout. Also, the zone of inhibition at 50 µg/mL was determined as 11 mm in the assay on Proteus mirabilis [2], 11 mm with Proteus vulgaris [6], 11 mm with Salmonella typhi [10] and 9 mm in the assay with Staphylococcus aureus [14]. The zone of inhibition at 75 µg/mL was determined as 15 mm in the assay on Proteus mirabilis [3], 15 mm in the assay on Proteus vulgaris [7], 14 mm in the assay with Salmonella typhi [11] and 15 mm in the assay with Staphylococcus aureus [15]. For the same compound, the zone of inhibition at 100 µg/mL in the assay with Proteus mirabilis [4] is 20 mm; with Proteus vulgaris [8], 20 mm; in the assay on Salmonella typhi [12], 16 mm; in the assay with Staphylococcus aureus [16] it was 19 mm.

For the compound `CCOC(=O)[C@@H]1[C@@H]([C@H]2[C@@H](c3ccccc3)C(=O)N2c2ccc(OC)cc2)CN(C)[C@@]12C(=O)c1cccc3cccc2c13`, the zone of inhibition at 50 µg/mL in the assay on Proteus mirabilis [2] is 9 mm; in the assay on Proteus vulgaris [6] it was 10 mm; in the assay with Salmonella typhi [10] it was 11 mm; in the assay with Staphylococcus aureus [14], 10 mm. Further, the zone of inhibition at 75 µg/mL was found to be 13 mm in the assay with Proteus mirabilis [3], 15 mm with Proteus vulgaris [7], 13 mm in the assay with Salmonella typhi [11] and 15 mm in the assay with Staphylococcus aureus [15]. The zone of inhibition at 100 µg/mL in the assay on Proteus mirabilis [4] is 18 mm; in the assay with Proteus vulgaris [8] it was 21 mm; in the assay on Salmonella typhi [12], 18 mm; with Staphylococcus aureus [16], 21 mm.

Take `CCOC(=O)[C@@H]1[C@@H]([C@H]2[C@@H](Oc3ccccc3)C(=O)N2c2ccc(OC)cc2)C2CCCN2[C@@]12C(=O)c1cccc3cccc2c13` (some centres undefined): the zone of inhibition at 25 µg/mL with Proteus mirabilis [1] was 10 mm; with Proteus vulgaris [5] it was 9 mm. The figures for the zone of inhibition at 50 µg/mL in the assay with Proteus mirabilis [2], in the assay with Proteus vulgaris [6] and in the assay on Staphylococcus aureus [14] were 13 mm, 11 mm and 11 mm, respectively. Besides, the zone of inhibition at 75 µg/mL came to 16 mm in the assay with Proteus mirabilis [3], 16 mm in the assay on Proteus vulgaris [7] and 14 mm in the assay on Staphylococcus aureus [15]. Moreover, the zone of inhibition at 100 µg/mL is 20 mm in the assay on Proteus mirabilis [4], 20 mm in the assay on Proteus vulgaris [8] and 18 mm in the assay with Staphylococcus aureus [16].

Consider `CCOC(=O)[C@@H]1[C@@H]([C@H]2[C@@H](c3ccccc3)C(=O)N2c2ccc(OC)cc2)C2CCCN2[C@@]12C(=O)c1cccc3cccc2c13` (some centres undefined), for which the zone of inhibition at 25 µg/mL in the assay with Proteus mirabilis [1] and in the assay with Staphylococcus aureus [13] was 9 mm each time. For the same compound, the zone of inhibition at 50 µg/mL in the assay with Proteus mirabilis [2] worked out at 11 mm; in the assay on Proteus vulgaris [6] it was 12 mm; in the assay with Staphylococcus aureus [14], 14 mm. Further, the zone of inhibition at 75 µg/mL in the assay with Proteus mirabilis [3] came to 14 mm; in the assay with Proteus vulgaris [7] it was 17 mm; in the assay with Staphylococcus aureus [15], 19 mm. Moreover, the zone of inhibition at 100 µg/mL in the assay on Proteus mirabilis [4] came to 18 mm; in the assay on Proteus vulgaris [8], 20 mm; in the assay with Staphylococcus aureus [16] it was 21 mm.
